Patent publication US12553889B2, “Small molecules targeting the intrinsically disordered structural ensemble of α-synuclein protect against diverse α-synuclein mediated dysfunctions” (The Regents of the University of California, priority 2019, dated 2026)
Entries after “also recorded” stand apart in the source; their conditions may differ.

Legend:
[1] = tested on: primary rat embryonic midbrain neurons; test: Toxicity to primary midbrain dopaminergic neurons; type: cell-based; settings: compound alone, 60 μM
Procedure: Primary midbrain cultures were prepared and dopaminergic neuronal viability in the presence and absence of αSyn was assessed as previously described and repeated herein. Primary midbrain cultures were prepared from embryonic day 17 embryos of Sprague-Dawley rats using methods reviewed and approved by the Purdue Animal Care and Use Committee as described previously. After dissection, the cells were plated into a poly-L-lysine-treated 48-well plate at a density of 163,500 cells per well. Four days later, the cells were treated with cytosine arabinofuranoside (AraC) (20 μM) for 48 hours to inhibit the growth of glial cells. The cultures were used for measurements of dopaminergic neuron viability at 7 days in vitro. […] In order to determine the viability of dopaminergic neurons, MAP2- and TH-positive neurons were counted in 10 to 15 randomly chosen observation fields in a blinded manner using a Nikon TE2000-U inverted fluorescence microscope (Nikon Instruments, Melville NY) with a 20× objective. In the control conditions, and in conditions where the compound was neuroprotective, typically 500 to 1,300 MAP2-positive neurons were counted, a range that corresponds to 20 to 50 TH-positive neurons. The data were expressed as the ratio of the TH-positive neurons to the MAP2-positive neurons. […]

[2] = tested on: H4 SL1 & SL2 neuroglioma cell line; test: Cell model of αSyn aggregate formation (phospho-S129 αSyn staining, ARRAYSCAN); type: cell-based; settings: 100 μM and 150 μM, 45 hours
Procedure: Next, 583854 was tested for impact on αSyn aggregation in a cell model of αSyn aggregate formation. Split Gaussian luciferase tagged αSyn overexpression was induced in the H4 SL1 & SL2 neuroglioma cell line by tetracycline addition (Moussaud, S., et al. (2015)). αSyn aggregates were visualized by staining fixed (4% PFA) cells with the S129 phosphorylated αSyn specific antibody 11A5 at 1 μg/ml (Anderson, J. P. et al. (2006)) using a green fluorescently labelled secondary antibody. Nuclei were stained with a blue Hoescht nuclear dye. Uninduced cells contained no phospho-αSyn staining and induced cells contain abundant phospho-αSyn aggregates. The cells were imaged for nuclei (blue, diffuse circular staining as in the Uninduced sample)) and phospho-αSyn (green punctate staining) on an ARRAYSCAN automated imaging platform (FIG. 23A), αSyn aggregates were quantitated using the ARRAYSCAN spot-detector algorithm. Cells were induced for αSyn by tetracycline addition and 583854 was added 3 to 4 hours later. At 48 hours after tetracycline addition the cells are washed in PBS and […] with 4% PFA.

Row | SMILES | toxic effect on primary dopaminergic neurons [1] | impact on αSyn aggregates (phospho-αSyn) [2]
1 | CNC(=O)c1cc(O)ccc1N [Compound 576755, 2-amino-5-hydroxy-N-methylbenzamide] | no detectable toxic effect; also recorded: not toxic | 
2 | CNC(=O)c1cc(O)ccc1O [Compound 583854, 2,5-dihydroxy-N-methylbenzamide] |  | reduced αSyn aggregates
